Source: patent US20120258156A1, “SHAPED COMPOSITIONS FOR UNIFORM DELIVERY OF A FUNCTIONAL AGENT” (priority 2011, published 2012)

Conditions: salt at 5% by weight in about 10 g tablets with 75% to 95% by weight calcium hypochlorite; FIGS. 6-8
From the text: The amount of calcium hypochlorite within each example ranged from 75% by weight to 95% by weight, while the various salts were included at 5% by weight, if at all.

Row | SMILES | effect of additive on dissolution of the calcium hypochlorite
1 | O=C([O-])[O-].[Ca+2] [calcium carbonate] | increase the rate of dissolution
2 | O=S(=O)([O-])[O-].[Ca+2] [calcium sulfate] | slow dissolution
3 | [Mg+2].[OH-].[OH-] [magnesium hydroxide] | slow dissolution
4 | O=S(=O)([O-])[O-].[Mg+2] [magnesium sulfate] | slow dissolution
5 | O=C([O-])[O-].[Na+].[Na+] [sodium carbonate] | slow dissolution
